The source of these data is PMC10298982, “Stability Characterization of the Novel Anti-Cancer HM-10/10 HDL-Mimetic Peptide” (International Journal of Molecular Sciences, 2023).

The term half-life denotes the time in which the quantity being followed falls by half. The amount remaining is the share of the starting amount still present when the sample was taken. As usually defined, the fraction unbound is free concentration divided by total concentration.

Read-outs that look alike come from different tables or passages of the source. Ends that are not written are not given here.

Data set [1] is described as follows: Stability in simulated intestinal fluid (SIF). It counts as in vitro ADME. The protocol:
When developing any potentially oral-route pharmaceutical agent, the denaturing and pepsin-rich environment of the stomach must be considered. The stability of HM-10/10 was tested in simulated gastric fluid (SGF) and simulated intestinal fluid (SIF) over 120 min. […] Samples were tested at 2 μM.
For the HM-10/10 stability assay in simulated gastric and intestinal fluids, propantheline was used to confirm retention time and carbutamide was used as the internal standard for calculations.

The nature of data set [2]: Metabolic stability in Sprague-Dawley rat liver microsomes. The format is in vitro ADME. The following applies: for CLint scaled: rat, microsomes, Sprague-Dawley rat liver microsomes 0.5 mg protein/mL, 2 μM. (In general: Liver microsomes are a subcellular fraction often used to study metabolism.)
Data set [3] is described as follows: Protein binding in cynomolgus monkey plasma (ultracentrifugation). Particulars: plasma (K2EDTA), pH 7.4.
The subject of data set [4] is cynomolgus monkey plasma proteins. The data set is described as above. The following applies: Cynomolgus monkey plasma (K2EDTA); 2 μM; 2.5 h at 37 °C.

Take “LRKLRKRLLRLVGRQLEEFL [HM-10/10, LRKLRKRLLRLVGRQLEEFL]”: in data set [1] (SIF, 2 μM, 20 min), the “Compound detected after 20 min under SIF conditions” value was “no HM-10/10 could be detected”. Also, the half-life at 2 µM in data set [1] (simulated intestinal fluid (SIF), SIF pH 5.5) was 2.72 min; in data set [2] (pooled liver microsomes, pH 7.4, Sprague-Dawley rat liver microsomes 0.5 mg protein/mL), 27.7 min. The share remaining at 2 h, 2 µM in data set [2] (pooled liver microsomes, pH 7.4, Sprague-Dawley rat liver microsomes 0.5 mg protein/mL, read-out: % Remaining at 120 min) is 3.7%. Also, the CLint scaled in data set [2] (read-out: CLint (L/hr/kg) (converted)) is 6.09 L/h/kg; in data set [2] (read-out: CLint (mL/min/kg)) it was 6.06 L/h/kg. Besides, the fraction unbound at 2.5 h, 2 µM in data set [3] (cynomolgus monkey) was found to be 0.736 ± 0.216. Moreover, in data set [3] (monkey), the amount remaining at 2.5 h, 2 µM was 25.9%. Also, the “% Protein Bound Mean ± SD” value in data set [4] is on record as 26.4 ± 21.6%. In addition, the “% Protein Free Mean ± SD” value in data set [4] was 73.6 ± 21.6%.
